Among the test systems are HT-29; NCI-H460; K562; A498; OVCAR-4; HCT-15; NCI/ADR-RES; SW-620; OVCAR-5; CCRF-CEM; TK-10; EKVX; UO-31; SK-MEL-2; HOP-92; RPMI-8226; U-251; ACHN; BT-549.
What all share (experiment): DTP human tumour cell line panel, 48 h

The values below come from ChEMBL document CHEMBL1201862, “PubChem BioAssay data set” (2004).

Molecules are shown by their SMILES.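 In this assay, cells in 96-well plates receive the compound at five concentrations for 48 hours. Endpoints are linearly interpolated between the surrounding concentrations. GI50 = concentration required for 50% inhibition of growth.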 Active and inactive are the calls of the source. Rule as the data show it: active = GI50 up to about 1.1 µM and inactive = higher.

Broadly, the GI50 is the concentration at which growth is held to half of that of the control. On to `COc1ccc(/C=C2\CN(C)C/C(=C\c3ccc(OC)cc3)C2=O)cc1`, for which the GI50 with HT-29 is > 100 µM (inactive); in the assay on NCI-H460, > 100 µM (inactive); with K562 it was > 100 µM (inactive); in the assay with A498, > 100 µM (inactive); in the assay with OVCAR-4 it was > 100 µM (inactive); in the assay with HCT-15, > 100 µM. Moreover, the GI50 in the assay with NCI/ADR-RES, in the assay with SW-620, with OVCAR-5, in the assay on CCRF-CEM, in the assay on TK-10 and in the assay with EKVX was > 100 µM (inactive) throughout. Also, the GI50 in the assay with UO-31, in the assay on SK-MEL-2, in the assay on HOP-92, in the assay with RPMI-8226, in the assay on U-251 and with ACHN was > 100 µM (inactive) each time.
Turning to `COc1cc(C(=O)O[C@H]2CCC3CCC2N3C)cc(OC)c1OC` (some centres not stated), the GI50 was > 100 µM (inactive) with HT-29; > 100 µM (inactive) in the assay with NCI-H460; > 100 µM (inactive) in the assay with K562; 36.3 µM (inactive) with A498; > 100 µM (inactive) with OVCAR-4; > 100 µM in the assay with HCT-15. In addition, the GI50 in the assay with NCI/ADR-RES, in the assay on SW-620, with OVCAR-5, in the assay on CCRF-CEM, with TK-10 and with EKVX was > 100 µM (inactive) throughout. For the same molecule, the GI50 with UO-31 was 43.2 µM (inactive); with HOP-92 it was 34.4 µM (inactive); with RPMI-8226, > 100 µM (inactive); in the assay on U-251 it was > 100 µM (inactive); in the assay on ACHN, > 100 µM (inactive).
`C/C(=C\CO)CC/C=C(\C)CNc1c(F)c(F)c(F)c(F)c1F`: the GI50 in the assay on HT-29 is 24 µM (inactive); with NCI-H460, 36.1 µM (inactive); with K562 it was 33 µM (inactive); with OVCAR-4, 44.5 µM (inactive); in the assay on HCT-15, 30.2 µM; in the assay on NCI/ADR-RES, 30.8 µM (inactive). In addition, the GI50 is 33.2 µM (inactive) with SW-620; 36.5 µM (inactive) in the assay on OVCAR-5; 28.1 µM (inactive) in the assay with CCRF-CEM; 6.4 µM (inactive) in the assay with BT-549; 29.5 µM (inactive) with TK-10; 30.7 µM (inactive) with EKVX. Also, the GI50 in the assay with UO-31 was 35.6 µM (inactive); with SK-MEL-2 it was 20.7 µM (inactive); in the assay with RPMI-8226 it was 14 µM (inactive); with U-251 it was 24.3 µM (inactive); with ACHN, 43.2 µM (inactive).
Regarding `CC1CC(C)C(C#N)N(C)c2ccccc21` (configuration not stated), the GI50 with HT-29 is 78.3 µM (inactive); in the assay on NCI-H460, > 100 µM (inactive); in the assay with K562, 87.9 µM (inactive); in the assay on A498, > 100 µM (inactive); in the assay on OVCAR-4, > 100 µM (inactive); in the assay on HCT-15 it was > 100 µM. Besides, the GI50 in the assay with NCI/ADR-RES is > 100 µM (inactive); in the assay on SW-620 it was > 100 µM (inactive); with OVCAR-5, > 100 µM (inactive); with CCRF-CEM it was 51.8 µM (inactive); with TK-10, > 100 µM (inactive); with EKVX, > 100 µM (inactive). Moreover, the GI50 is > 100 µM (inactive) in the assay on UO-31, > 100 µM (inactive) in the assay on SK-MEL-2, 37.2 µM (inactive) with RPMI-8226 and > 100 µM (inactive) in the assay with ACHN.
`Clc1ccc(COC(Cn2ccnc2)c2ccc(Cl)cc2Cl)c(Cl)c1` (configuration not stated) [MICONAZOLE NITRATE]: the GI50 was 12.6 µM (inactive) with NCI-H460; 3.75 µM (inactive) in the assay on K562; 11.9 µM (inactive) in the assay on OVCAR-4; 10.2 µM in the assay on HCT-15; 4 µM (inactive) in the assay on NCI/ADR-RES; 12.8 µM (inactive) with SW-620. Besides, the GI50 with OVCAR-5 is 12.9 µM (inactive); in the assay on CCRF-CEM, 5.82 µM (inactive); in the assay on EKVX, 10.5 µM (inactive); with UO-31, 2.94 µM (inactive); in the assay with SK-MEL-2, 13.1 µM (inactive); in the assay with U-251 it was 11 µM (inactive). For the same molecule, in the assay on ACHN, the GI50 was 12.2 µM (inactive).
Turning to `O=c1[nH]c(=O)n(C2CC(O)C(COP(=O)(O)OC3CC(n4cc(F)c(=O)[nH]c4=O)OC3COP(=O)(O)OC3CC(n4cc(F)c(=O)[nH]c4=O)OC3COP(=O)(O)OC3CC(n4cc(F)c(=O)[nH]c4=O)OC3COP(=O)(O)OC3CC(n4cc(F)c(=O)[nH]c4=O)OC3COP(=O)(O)OC3CC(n4cc(F)c(=O)[nH]c4=O)OC3COP(=O)(O)OC3CC(n4cc(F)c(=O)[nH]c4=O)OC3COP(=O)(O)OC3CC(n4cc(F)c(=O)[nH]c4=O)OC3COP(=O)(O)OC3CC(n4cc(F)c(=O)[nH]c4=O)OC3COP(=O)(O)OC3CC(n4cc(F)c(=O)[nH]c4=O)OC3CO)O2)cc1F` (configuration not stated), the GI50 in the assay on HT-29 was 0.481 µM (active); with NCI-H460, < 0.005 µM (active); in the assay on K562, 2.36 µM (inactive); in the assay on A498 it was < 0.005 µM (active); in the assay with OVCAR-4 it was 0.661 µM (active); in the assay on HCT-15, 0.309 µM. Besides, the GI50 is < 0.005 µM (active) in the assay on NCI/ADR-RES; > 50 µM (inactive) in the assay with SW-620; 0.493 µM (active) in the assay on TK-10; < 0.005 µM (active) in the assay on UO-31; 3.07 µM (inactive) in the assay with SK-MEL-2; 0.0202 µM (active) in the assay with HOP-92. Besides, the GI50 is 0.232 µM (active) in the assay on RPMI-8226, 0.115 µM (active) with U-251 and < 0.005 µM (active) in the assay with ACHN.
For the molecule `COC(=O)C1=C(O)C(C(=O)OC)[C@]2(O)[C@H](C(=O)OC)[C@H]1C[C@@H](c1ccc([N+](=O)[O-])cc1)[C@H]2C(=O)OC` (some centres not stated), the GI50 in the assay on HT-29 is 22.6 µM (inactive); in the assay with NCI-H460, 26.4 µM (inactive); in the assay on K562, 10.2 µM (inactive); with OVCAR-4, 34.8 µM (inactive); in the assay on HCT-15 it was 12.7 µM; with NCI/ADR-RES, 16.4 µM (inactive). In addition, the GI50 with SW-620 was 16.6 µM (inactive); in the assay on OVCAR-5, 25.2 µM (inactive); in the assay with CCRF-CEM, 18 µM (inactive); with BT-549, 15.9 µM (inactive); in the assay on TK-10 it was 74.1 µM (inactive); in the assay on EKVX, 21.5 µM (inactive). For the same molecule, the values for the GI50 in the assay with SK-MEL-2, with U-251 and in the assay with ACHN were 18.4 µM (inactive), 11.5 µM (inactive) and 18.1 µM (inactive), respectively.
As to `O=C1C(c2ccccc2)=[N+]([O-])c2ccccc21`, the GI50 in the assay with HT-29 is 20.2 µM (inactive); with NCI-H460 it was 16.5 µM (inactive); with K562 it was 3.15 µM (inactive); in the assay on A498 it was 17.9 µM (inactive); in the assay on OVCAR-4, 4.04 µM (inactive); in the assay on HCT-15 it was 19.7 µM. The GI50 with NCI/ADR-RES was 17.7 µM (inactive); in the assay with SW-620, 5.83 µM (inactive); in the assay with OVCAR-5, 22.4 µM (inactive); with CCRF-CEM, 4.83 µM (inactive); in the assay on TK-10, 20 µM (inactive); in the assay on EKVX, 15.1 µM (inactive). Also, the GI50 was 16.2 µM (inactive) with UO-31; 14.7 µM (inactive) in the assay on SK-MEL-2; 6.79 µM (inactive) with HOP-92; 14.9 µM (inactive) in the assay with RPMI-8226; 10.5 µM (inactive) with U-251; 19.2 µM (inactive) in the assay on ACHN.
As to `CCCC(=O)Nc1ccc(O)c2c1C1CCCCCC21` (configuration not stated), the GI50 in the assay with HT-29 was > 100 µM (inactive); in the assay with NCI-H460, > 100 µM (inactive); in the assay with K562, 64.9 µM (inactive); with OVCAR-4, 68.5 µM (inactive); in the assay on HCT-15 it was 74 µM; in the assay on SW-620, > 100 µM (inactive). The GI50 was > 100 µM (inactive) in the assay with CCRF-CEM; > 100 µM (inactive) in the assay on TK-10; > 100 µM (inactive) in the assay with EKVX; 63.2 µM (inactive) in the assay on UO-31; > 100 µM (inactive) in the assay with SK-MEL-2; 63.1 µM (inactive) in the assay with RPMI-8226. The values for the GI50 in the assay on U-251 and in the assay with ACHN were > 100 µM (inactive) and 71.8 µM (inactive), respectively.
`COC(=O)c1nn(-c2ccccc2)c(=O)cc1N=[N+]=[N-]`: the GI50 in the assay on HT-29 is > 100 µM (inactive); with NCI-H460 it was > 100 µM (inactive); in the assay with K562 it was > 100 µM (inactive); with A498, 94 µM (inactive); in the assay on OVCAR-4, > 100 µM (inactive); with HCT-15, > 100 µM. The GI50 in the assay on SW-620, in the assay with OVCAR-5, in the assay with CCRF-CEM, in the assay on TK-10, in the assay on EKVX and with UO-31 was > 100 µM (inactive) in each case. Besides, the GI50 in the assay on RPMI-8226, in the assay with U-251 and with ACHN was > 100 µM (inactive) each time.
As for `COc1ccccc1C(=O)NO`, the GI50 in the assay with HT-29 is > 100 µM (inactive); in the assay on NCI-H460 it was 62.7 µM (inactive); with K562 it was > 100 µM (inactive); with OVCAR-4, > 100 µM (inactive); in the assay with HCT-15, > 100 µM; in the assay on NCI/ADR-RES, > 100 µM (inactive). Also, the GI50 with SW-620, with OVCAR-5, with CCRF-CEM, in the assay with BT-549, with TK-10 and in the assay on EKVX was > 100 µM (inactive) in each case. For the same molecule, the GI50 with UO-31, with SK-MEL-2, in the assay with RPMI-8226, with U-251 and in the assay with ACHN was > 100 µM (inactive) each time.
Turning to `c1csc(-c2csc(-c3cccs3)c2)c1`, the GI50 in the assay with HT-29 was > 100 µM (inactive); in the assay with NCI-H460, 88.3 µM (inactive); with A498 it was > 100 µM (inactive); in the assay on OVCAR-4 it was 77.4 µM (inactive); with HCT-15, 27.7 µM; in the assay with NCI/ADR-RES it was > 100 µM (inactive). Also, the GI50 is 35.9 µM (inactive) in the assay with SW-620; > 100 µM (inactive) in the assay on OVCAR-5; 49.2 µM (inactive) in the assay with CCRF-CEM; 67.1 µM (inactive) in the assay with TK-10; 39.8 µM (inactive) with EKVX; 57.8 µM (inactive) with UO-31. In addition, the GI50 in the assay on SK-MEL-2 is 20.2 µM (inactive); with HOP-92, 17.7 µM (inactive); with RPMI-8226 it was 24.3 µM (inactive); in the assay with U-251, 77.4 µM (inactive); with ACHN it was > 100 µM (inactive).
